Assay results from PubChem BioAssay (NCI).
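1) Cells in 96-well plates. 2) Compound, 48 h, 5 concentrations. 3) Linear interpolation between surrounding doses. 4) Unreached endpoint = highest concentration. GI50: concentration for 50% inhibition of growth. TGI denotes the concentration required for complete inhibition of growth.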

Experiments:
Experiment in all cases: growth of human tumour cells (NCI), 48 h
SNB-75 CNS = tested on: SNB-75 CNS
SF-268 CNS = tested on: SF-268 CNS
SK-MEL-5 melanoma = tested on: SK-MEL-5 melanoma
CCRF-CEM leukemia = tested on: CCRF-CEM leukemia
SW-620 colon = tested on: SW-620 colon
SK-MEL-2 melanoma = tested on: SK-MEL-2 melanoma
OVCAR-4 ovarian = tested on: OVCAR-4 ovarian
IGROV1 ovarian = tested on: IGROV1 ovarian
MDA-MB-435 = tested on: MDA-MB-435
HCC-2998 colon = tested on: HCC-2998 colon

Cc1ccc(Cc2cnc(NC(=O)/C=C/c3cccc(C)c3)s2)cc1
GI50 (SNB-75 CNS): 0.104 µM | TGI (SNB-75 CNS): 0.845 µM | GI50 (SF-268 CNS): 1.85 µM | TGI (SF-268 CNS): > 100 µM | GI50 (SK-MEL-5 melanoma): 0.404 µM | TGI (SK-MEL-5 melanoma): > 100 µM | GI50 (CCRF-CEM leukemia): 0.0893 µM | TGI (CCRF-CEM leukemia): > 53.6 µM | GI50 (SW-620 colon): 0.0731 µM | TGI (SW-620 colon): > 100 µM | GI50 (SK-MEL-2 melanoma): 1.68 µM | TGI (SK-MEL-2 melanoma): > 100 µM | GI50 (OVCAR-4 ovarian): 0.842 µM | TGI (OVCAR-4 ovarian): 4.71 µM | GI50 (IGROV1 ovarian): 0.334 µM | TGI (IGROV1 ovarian): 15.5 µM | GI50 (MDA-MB-435): 0.0275 µM | TGI (MDA-MB-435): 0.104 µM | GI50 (HCC-2998 colon): 0.296 µM | TGI (HCC-2998 colon): > 37.1 µM

Cc1nc2sc(C(=O)Nc3cccc4ccccc34)c(N)c2cc1C(O)c1ccccc1 (stereo not given)
GI50 (SNB-75 CNS): 0.0241 µM | TGI (SNB-75 CNS): 11.7 µM | GI50 (SF-268 CNS): 0.174 µM | TGI (SF-268 CNS): 11.2 µM | GI50 (SK-MEL-5 melanoma): 0.0993 µM | TGI (SK-MEL-5 melanoma): 0.717 µM | GI50 (CCRF-CEM leukemia): 0.0409 µM | TGI (CCRF-CEM leukemia): > 100 µM | GI50 (SW-620 colon): 0.0377 µM | TGI (SW-620 colon): 23.4 µM | GI50 (SK-MEL-2 melanoma): 0.29 µM | TGI (SK-MEL-2 melanoma): 16.9 µM | GI50 (OVCAR-4 ovarian): 0.215 µM | TGI (OVCAR-4 ovarian): 44.2 µM | GI50 (IGROV1 ovarian): 0.0651 µM | TGI (IGROV1 ovarian): 12.4 µM | GI50 (MDA-MB-435): 0.0205 µM | TGI (MDA-MB-435): 0.0469 µM | GI50 (HCC-2998 colon): 0.193 µM | TGI (HCC-2998 colon): 2.89 µM

C[C@]12CC[C@@H]3c4cc(-c5ccc(F)cc5)c(O)cc4CC[C@H]3[C@@H]1CC[C@@H]2O
GI50 (SNB-75 CNS): 2.06 µM | TGI (SNB-75 CNS): 8.38 µM | GI50 (SF-268 CNS): 7.29 µM | TGI (SF-268 CNS): 27.8 µM | GI50 (SK-MEL-5 melanoma): 9.41 µM | TGI (SK-MEL-5 melanoma): 21.2 µM | GI50 (CCRF-CEM leukemia): 6.93 µM | TGI (CCRF-CEM leukemia): 29.3 µM | GI50 (SW-620 colon): 10.1 µM | TGI (SW-620 colon): 21.8 µM | GI50 (SK-MEL-2 melanoma): 5.81 µM | TGI (SK-MEL-2 melanoma): 19.8 µM | GI50 (OVCAR-4 ovarian): 4.04 µM | TGI (OVCAR-4 ovarian): 17.1 µM | GI50 (IGROV1 ovarian): 6 µM | TGI (IGROV1 ovarian): 20.4 µM | GI50 (MDA-MB-435): 11.8 µM | TGI (MDA-MB-435): 28.6 µM | GI50 (HCC-2998 colon): 16.8 µM | TGI (HCC-2998 colon): 38.2 µM

C[C@@H](O)[C@H](NC(=O)N[C@@H](CC(N)=O)c1nc([C@@H](N)CO)no1)C(=O)O
GI50 (SNB-75 CNS): > 100 µM | TGI (SNB-75 CNS): > 100 µM | GI50 (SF-268 CNS): > 100 µM | TGI (SF-268 CNS): > 100 µM | GI50 (SK-MEL-5 melanoma): > 100 µM | TGI (SK-MEL-5 melanoma): > 100 µM | GI50 (CCRF-CEM leukemia): > 100 µM | TGI (CCRF-CEM leukemia): > 100 µM | GI50 (SW-620 colon): > 100 µM | TGI (SW-620 colon): > 100 µM | GI50 (SK-MEL-2 melanoma): > 100 µM | TGI (SK-MEL-2 melanoma): > 100 µM | GI50 (OVCAR-4 ovarian): > 100 µM | TGI (OVCAR-4 ovarian): > 100 µM | GI50 (IGROV1 ovarian): > 100 µM | TGI (IGROV1 ovarian): > 100 µM | GI50 (MDA-MB-435): > 100 µM | TGI (MDA-MB-435): > 100 µM | GI50 (HCC-2998 colon): > 100 µM | TGI (HCC-2998 colon): > 100 µM

COc1ccc(/C(COc2ccc3c(=O)c(-c4ccccc4)coc3c2)=N\O)cc1
GI50 (SNB-75 CNS): 14.5 µM | TGI (SNB-75 CNS): > 70.9 µM | GI50 (SF-268 CNS): 6.36 µM | TGI (SF-268 CNS): > 78.5 µM | GI50 (SK-MEL-5 melanoma): 0.394 µM | TGI (SK-MEL-5 melanoma): 4.74 µM | GI50 (CCRF-CEM leukemia): 3.9 µM | TGI (CCRF-CEM leukemia): > 100 µM | GI50 (SW-620 colon): 2.37 µM | TGI (SW-620 colon): 16.9 µM | GI50 (SK-MEL-2 melanoma): 3.5 µM | TGI (SK-MEL-2 melanoma): 23.7 µM | GI50 (OVCAR-4 ovarian): 16.1 µM | TGI (OVCAR-4 ovarian): > 100 µM | GI50 (IGROV1 ovarian): 7.37 µM | TGI (IGROV1 ovarian): 38.3 µM | GI50 (MDA-MB-435): 2.17 µM | TGI (MDA-MB-435): 4.64 µM | GI50 (HCC-2998 colon): 3.09 µM | TGI (HCC-2998 colon): 9.15 µM
